According to ChEMBL document CHEMBL1128954, “Discovery of antirhinoviral leads by screening a combinatorial library of ureas prepared using covalent scavengers” (Bioorg Med Chem Lett, 1996):

Key:
[1] = test system: Human rhinovirus sp.; assay: Compound was evaluated for antirhinoviral activity against human rhinovirus-14 (HRV-14) in whole cell assay; format: functional, organism-based
[2] = test system: Human rhinovirus sp.; assay: Compound was evaluated for cytotoxicity against human rhinovirus-14 (HRV-14) in whole cells as cresynthesized product using XTT assay.; format: functional
[3] = test system: Human rhinovirus sp.; assay: Compound was evaluated for cytotoxicity against human rhinovirus-14 (HRV-14) in whole cells as combinatorial sample; format: functional
[4] = test system: Human rhinovirus sp.; assay: Compound was evaluated for the inhibition of human rhinovirus-14 HRV-14 at 1 ug/ml; format: functional
[5] = test system: Human rhinovirus sp.; assay: Compound was evaluated for antirhinoviral activity against human rhinovirus-14 (HRV-14) as combinatorial sample; format: functional, organism-based
[6] = test system: Human rhinovirus sp.; assay: Compound was evaluated for antirhinoviral activity against human rhinovirus-14 (HRV-14) as resynthesized product using XTT assay.; format: functional, organism-based

| Structure (SMILES) | inhibition at 1 µg/mL [4] [%] | further results |
| --- | --- | --- |
| CCCCOC(=O)c1ccc(NC(=O)N2CCN(CC(=O)NC(C)C)CC2)cc1 | 101 | IC50 [1]: 2400 nM; IC50 ([1]; Human rhinovirus sp.): 1800 nM; TC50 [2]: >40000 nM; TC50 [3]: >40000 nM |
| CCCCOC(=O)c1ccc(NC(=O)NCCNC(C)=O)cc1 | 0 | – |
| CCCCOC(=O)c1ccc(NC(=O)N2CCCC(C(N)=O)C2)cc1 (stereo not drawn) | 1 | – |
| CCCCOC(=O)c1ccc(NC(=O)NCCc2ccc(S(N)(=O)=O)cc2)cc1 | 102 | TC50 [2]: >40000 nM; IC50 [5]: 690 nM; TC50 [3]: 34000 nM; IC50 [6]: 810 nM |
| CCCCOC(=O)c1ccc(NC(=O)N2CCCCC2O)cc1 (stereo not drawn) | 2 | – |
| CCCCOC(=O)c1ccc(NC(=O)N2CCSCC2)cc1 | 1 | – |
| CCCCOC(=O)c1ccc(NC(=O)N2CCC(C(N)=O)CC2)cc1 | 0 | – |
| CCCCOC(=O)c1ccc(NC(=O)NC2CC3CCC2C3)cc1 (stereo not drawn) | 1 | – |
| CCCCOC(=O)c1ccc(NC(=O)N2CCN(c3ccccn3)CC2)cc1 | 0 | – |
| CCCCOC(=O)c1ccc(NC(=O)N2CCCC(C(=O)N(CC)CC)C2)cc1 (stereo not drawn) | 0 | – |
